The target in data set [1] is T1, human Drp1 isoform 3 (Homo sapiens, UniProt O00429).
T1 construct: His tag; made in house; host or cells: E. coli Rosetta (DE3), pET21b vector
Put plainly: Drp1 GTPase activity, colorimetric malachite green assay. It counts as biochemical. The method, then:
The GTPase activity of Drp1, which is required for the latter to mediate mitochondrial fission, was examined using the colorimetric GTPase assay kit (Innova Biosciences, Cambridge, UK) according to the manufacturer’s instructions. Compounds were diluted in DMSO (all with a final concentration of 0.1% DMSO). Recombinant human Drp1 protein isoform-3 (final concentration 0.25 ng/µL) was diluted in assay buffer containing 50 mM Tris HCl (pH 7.5) and 2.5 mM MgCl2, followed by incubation with compounds for 15 min at 37 °C in a 96 well plate. 0.5 mM GTP, diluted in assay buffer, was then added into the mixture followed by incubation at 37 °C for 30 min.
Upon binding to Drp1, GTP is hydrolysed into GDP and free phosphate (Pi)[24]. Therefore, the degree of GTPase inhibition was assessed by measuring the concentration of Pi released into the assay buffer, which is detected by a malachite green-based dye. The intensity of Pi-dye complex was assessed by measuring the light absorbance at 635 nm wavelength using a microplate reader (BenchMark Plus, MS, USA). Absorbance of each experimental group was normalised to the vehicle control (DMSO).

A short description of data set [2]: Dynamic light scattering (DLS) compound aggregation threshold. It counts as physicochemical. As for the experimental part: Identification of compound aggregation threshold was performed using DLS Zetasizer Nano ZS (Malvern Pananalytical, Worcestershire, UK). 100 µL of samples were measured in low-volume plastic micro cuvettes (BrandTech Scientific, CT, USA) at 25 °C using default size measurement settings. […] Mdivi-1 and DRP1i27 were serially diluted three-fold from 500 µM until the volume distribution of particle size was similar to that of the DMSO control. To specifically determine aggregation threshold, further dilution was carried out between concentrations where aggregation was first observed.

Data set [3] deals with human Drp1. Set-up: method as in PMID 28350990. As to conditions: read-out: inhibitory constant (Ki), GTPase activity of human Drp1; cited from earlier work.
Data set [4] concerns the target T1, human Drp1 isoform 3. Nature of the data set: Microscale thermophoresis (MST) binding. The note with it: human Drp1 isoform 3, 5% DMSO. As for the experimental part:
The recombinant human Drp1 protein (His-tagged human Drp1 isoform 3, kindly provided by Professor Michael Ryan, Monash University, Australia) was generated as described previously. Briefly, cDNA for human Drp1 (isoform 3) was cloned into pET21b vector and transformed in Rosetta (DE3) competent cells (Novagen, MA, Merck Millipore). Transformed cells were propagated in Luria–Bertani broth and protein expression was initiated by the addition of 0.5 mM isopropyl β-D-1-thiogalactopyranoside. Cells were harvested by centrifugation at 3,500 g for 20 min at 4 °C, and the pellet was re-suspended in lysis buffer containing 50 mM Tris HCl (pH 7.3), 500 mM NaCl, 50 mM imidazole, 2.5 mM β-mercaptoethanol, 0.01 mM LEUPEP, 0.1 mM AEBSF and 1 mM benzaminidium chloride. The cells were lysed using a pre-cooled EmulsiFlex-C5 homogenizer (Avestin, Ontario, Canada) on ice and clarified by centrifugation at 17,000 g for 30 min. The clarified cell lysate was loaded onto a 5 mL Nickel Chelating Sepharose Fast Flow column (GE Healthcare, Buckinghamshire, UK) and Drp1 protein was eluted with wash buffer containing 50 mM Tris–HCl (pH 7.6), 150 mM NaCl, 2.5 mM β-mercaptoethanol and 400 mM imidazole. […]
Compound binding was assessed in against the human Drp1 isoform-3 protein using MST Monolith NT.115 instrument (NanoTemper Technologies, Mȕnchen, Germany). […]
(MST reads how a fluorescent partner responds to local heating, with and without ligand.)

Data set [5] concerns the target T1, human Drp1 isoform 3. Nature of the data set: Surface plasmon resonance (SPR) binding. The note with it: concentrations as high as 100 µM. As for the experimental part: The recombinant human Drp1 protein (His-tagged human Drp1 isoform 3, kindly provided by Professor Michael Ryan, Monash University, Australia) was generated as described previously. Briefly, cDNA for human Drp1 (isoform 3) was cloned into pET21b vector and transformed in Rosetta (DE3) competent cells (Novagen, MA, Merck Millipore). Transformed cells were propagated in Luria–Bertani broth and protein expression was initiated by the addition of 0.5 mM isopropyl β-D-1-thiogalactopyranoside. […]
All SPR experiments were performed on a Biacore T200 instrument (GE Healthcare Life Sciences, Uppsala, Sweden) at 25 °C in the presence of HEPES buffered saline containing 20 mM phosphate (pH 7.5), 137 mM NaCl, 2.7 mM KCl and 0.05% Tween-20 (HBS + P). […] Sensor surface was activated with 1:1 mixture of 0.4 M EDC and 0.1 M NHS for 7 min, followed by incremental injections of the protein to reach ~ 8000 RU (flow rate 10 μL/minute) for a calculated maximum analyte binding capacity (Rmax) of 30–50 RU. […]
Compounds were dissolved in 100% dimethyl sulfoxide (DMSO) and then added to HBS + P at a final DMSO concentration of 2%. […] SPR results were analysed using the Biacore T200 Evaluation Software v.1.
Background: In SPR one partner is held on a chip, and binding of the other changes the refractive index at the surface.

Data set [6] concerns human iPSC-derived cardiomyocytes. Nature of the data set: Doxorubicin-induced cardiomyocyte injury, LDH release. The note with it: doxorubicin 5 µM alone, 2 days. It counts as cell-based. The method, then:
Cardiomyocytes were derived from human induced pluripotent stem cells (iPSCs, CERA007c6 cell line) as previously described with modifications[26],[27]. Briefly, human iPSCs were seeded onto Matrigel (Corning) coated plates at a density of 1.25 × 10^5 cells/cm^2 in TeSR-E8 medium supplemented with 10 μM Y−27632 (Abcam). After 48 h (cells ~ 90% confluent) (day 0), medium was replaced with RPMI-1640 basal medium (Thermo Fisher Scientific) containing B-27 without insulin supplement (Thermo Fisher Scientific), growth factor reduced Matrigel (1:60 dilution) and 10 μM CHIR99021 (Cayman Chemical). At day 1, medium was replaced with RPMI 1640 basal medium containing B-27 without insulin supplement. […]
Enriched cardiomyocytes were replated onto Matrigel-coated 48-well plates at a cell density of 5 × 10^4 cells/cm^2 for 2 days. […] LDH levels in the conditioned media were assessed using a colorimetric CyQUANT LDH Cytotoxicity Assay Kit (Thermo Fisher Scientific) according to manufacturer’s protocol. […] Following the incubation at room temperature for 30 min in the dark, 50 μL of Stop Solution was added and absorbance was measured at 490 nm and 680 nm on a microplate spectrophotometer (Bio-Rad). All readings were then corrected for the background signal from the culture media and expressed as fold change.
(In general: LDH leaks from cells whose membrane has failed.)

A value given as a limit tells only on which side of the number the result lay.

The values below come from publication PMC9747717, “A novel small molecule inhibitor of human Drp1” (Scientific Reports, 2022).

T1 sequence (O00429 1-699 isoform O00429-4): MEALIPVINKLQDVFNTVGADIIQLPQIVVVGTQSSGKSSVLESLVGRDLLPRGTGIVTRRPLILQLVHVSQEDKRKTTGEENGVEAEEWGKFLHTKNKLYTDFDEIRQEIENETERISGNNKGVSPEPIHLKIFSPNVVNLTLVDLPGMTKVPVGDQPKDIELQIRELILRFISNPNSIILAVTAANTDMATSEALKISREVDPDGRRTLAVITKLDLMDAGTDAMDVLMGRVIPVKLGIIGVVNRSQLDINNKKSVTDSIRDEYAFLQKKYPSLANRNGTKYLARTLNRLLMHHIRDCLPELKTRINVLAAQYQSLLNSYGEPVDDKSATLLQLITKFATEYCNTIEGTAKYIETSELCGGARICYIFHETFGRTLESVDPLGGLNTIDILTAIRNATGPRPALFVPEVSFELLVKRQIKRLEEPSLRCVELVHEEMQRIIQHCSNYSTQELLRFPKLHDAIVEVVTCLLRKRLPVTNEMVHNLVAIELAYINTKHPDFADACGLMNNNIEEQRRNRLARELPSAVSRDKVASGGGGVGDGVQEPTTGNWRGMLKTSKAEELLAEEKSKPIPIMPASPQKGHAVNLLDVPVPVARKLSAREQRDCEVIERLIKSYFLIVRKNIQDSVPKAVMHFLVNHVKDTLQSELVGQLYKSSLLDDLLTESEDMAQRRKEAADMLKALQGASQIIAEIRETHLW

With `COc1cc(-n2c(=S)[nH]c3ccccc3c2=O)c(Cl)cc1Cl` [Mdivi-1], the entries for the “inhibition of GTPase activity of human Drp1” value in data set [1] (5 µM) and in data set [1] (increasing concentration above 5 µM) were “significant inhibition” and “not observed”, respectively. In addition, the aggregation threshold in data set [2] (2% DMSO with 0.05% Tween-20) came out at 70 µM; in data set [2] (5% DMSO with 0.05% Tween-20), 18.5 µM; in data set [2] (PBS, 2% DMSO), 20 µM; in data set [2] (PBS, 5% DMSO), 35 µM. In addition, the “concentrations at which the compound aggregated” value in data set [2] (assay buffer containing DMSO and Tween-20) is “above 18.5 µM”. The Ki (usually the equilibrium dissociation constant of an inhibitor or competing ligand from its target) in data set [3] is more than 1200 µM. Further, the dissociation constant Kd (in general, the concentration at which binding is half-saturated) in data set [4] worked out at 0.23 µM. Also, the SPR binding response result in data set [5] is “no binding response”.
Turning to `COc1cccc2c1C(=O)c1c(O)c3c(c(O)c1C2=O)C[C@@](O)(C(=O)CO)C[C@@H]3O[C@H]1C[C@H](N)[C@H](O)[C@H](C)O1` [doxorubicin, reference compound], the LDH release in data set [6] is given as 3.41 ± 0.11 fold change.
